Values of other authors as cited in article PMC4871512, “Drug-Based Lead Discovery: The Novel Ablative Antiretroviral Profile of Deferiprone in HIV-1-Infected Cells and in HIV-Infected Treatment-Naive Subjects of a Double-Blind, Placebo-Controlled, Randomized Exploratory Trial” (PLoS ONE, 2016).

Columns and labels:
HIV-1 [1] = tested on: HIV-1; parameters: method as in PMID 8793010; conditions: culture; cited from earlier work
[2] = tested on: HIV-infected cell lines and HIV-infected primary cells; conditions: cited from earlier work
HIV-1 [3] = tested on: HIV-1; parameters: method as in PMID 8648207, PMID 9498441, PMID 9952363; conditions: after 12 weeks on monotherapy; cited from earlier work
[4] = tested on: productively infected macrophages; parameters: method as in PMID 7973634; conditions: cited from earlier work
human or mouse epithelia = tested on: human or mouse epithelia; parameters: method as in PMID 24086341; conditions: concentrations that ablate yeast and HIV-infected cells; cited from earlier work
HIV-1 [5] = tested on: HIV-1; parameters: method as in PMID 9715844; conditions: cited from earlier work
DOHH = tested on: DOHH; parameters: method as in PMID 12115536; conditions: clinically relevant concentrations; cited from earlier work
[6] = clinically relevant concentrations

Q: With `Cc1ccnc2c1NC(=O)c1cccnc1N2C1CC1` [nevirapine] as the molecule, how does the “time to viral breakthrough during monotherapy” value (HIV-1 [1]) read?
A: Its value is ≥ 4 days.

Q: For `NC(Cn1ccc(=O)c(O)c1)C(=O)O` (stereo not drawn) [mimosine], which “ribosomal presence of gag mRNA, amount of intra- and extracellular p24, budding of viral particles” value ([2]; treated HIV-infected cells) is on record?
A: Its value is “suppress”.

Q: What does the source list for `Cc1cn([C@H]2C[C@H](N=[N+]=[N-])[C@@H](CO)O2)c(=O)[nH]c1=O` [zidovudine]?
A: time to viral breakthrough during monotherapy (HIV-1 [1]): ≥ 4 days; viral load decline (HIV-1 [3]): -0.3 log10

Q: Which “HIV-1 DNA” value [4] does the source give for `NC(=O)NO` [hydroxyurea] here?
A: The value was “depleted HIV-1 DNA”.

Q: And the viral breakthrough [4]?
A: The viral breakthrough was “blocked breakthrough during three weeks of treatment”.

Q: What about the “viral rebound after cessation” value [4] of the same molecule?
A: The value was “did not allow rebound after cessation”.

Q: For `Cc1cc(C2CCCCC2)n(O)c(=O)c1` [ciclopirox, 6-cyclohexyl-1-hydroxy-4-methylpyridin-2[1H]-one], which “off-drug re-emergence of HIV-1 RNA synthesis, compared with deferiprone” value ([2]; ciclopirox at 30 μM) is on record?
A: Its value is “gave similar results”.

Q: What about the “antiretroviral activity of the paired 1,2-HOPO chelators” value [2] of the same molecule?
A: The value was “antiretrovirally active”.

Q: What about the “viral breakthrough during monotherapy” value ([2]; up to 5 weeks of monotherapy) of the same molecule?
A: The value was “neither allowed breakthrough”.

Q: What about the “acute toxicity at human or mouse epithelia” value (human or mouse epithelia) of the same molecule?
A: Its value is “does not cause acute toxicity”.

Q: With `CC(=O)N(O)CCCCCNC(=O)CCC(=O)N(O)CCCCCNC(=O)CCC(=O)N(O)CCCCCN` [deferoxamine] as the molecule, how does the “dose-related antiretroviral effect in persons living with HIV-1” value (HIV-1 [5]) read?
A: The value was “does not display a dose-related antiretroviral effect”.

Q: And the “ablation of HIV-infected cells” value [2, 6]?
A: The value was “does not ablate HIV-infected cells”.

Q: And the “antiretroviral activity in culture” value [2, 6]?
A: Its value is “does not display antiretroviral activity in culture”.

Q: What about the “suppression of DOHH activity” value (DOHH) of the same molecule?
A: Its value is “does not achieve maximal suppression of DOHH activity”.
